Reference: article PMC9632963, “Preclinical characterization and phase I clinical trial of CT053PTSA targets MET, AXL, and VEGFR2 in patients with advanced solid tumors” (Frontiers in Immunology, 2022)

Legend:
FLT4 = FLT4 (Homo sapiens, UniProt P35916); experiment: Kinase inhibition assay (LANCE or HTRF); assay type: biochemical; conditions: ATP at Km
Procedure: (§3) The IC50 values were determined by measuring phosphorylation of peptide substrate poly at ATP concentrations at the Km.

ITK = ITK (Homo sapiens, UniProt Q08881); experiment: Kinase inhibition assay (LANCE or HTRF); assay type: biochemical; conditions: ATP at Km
Procedure: as §3

Fes = Fes (Homo sapiens, UniProt P07332); experiment: Kinase inhibition assay (LANCE or HTRF); assay type: biochemical; conditions: ATP at Km
Sequence of Fes (P07332 whole entry): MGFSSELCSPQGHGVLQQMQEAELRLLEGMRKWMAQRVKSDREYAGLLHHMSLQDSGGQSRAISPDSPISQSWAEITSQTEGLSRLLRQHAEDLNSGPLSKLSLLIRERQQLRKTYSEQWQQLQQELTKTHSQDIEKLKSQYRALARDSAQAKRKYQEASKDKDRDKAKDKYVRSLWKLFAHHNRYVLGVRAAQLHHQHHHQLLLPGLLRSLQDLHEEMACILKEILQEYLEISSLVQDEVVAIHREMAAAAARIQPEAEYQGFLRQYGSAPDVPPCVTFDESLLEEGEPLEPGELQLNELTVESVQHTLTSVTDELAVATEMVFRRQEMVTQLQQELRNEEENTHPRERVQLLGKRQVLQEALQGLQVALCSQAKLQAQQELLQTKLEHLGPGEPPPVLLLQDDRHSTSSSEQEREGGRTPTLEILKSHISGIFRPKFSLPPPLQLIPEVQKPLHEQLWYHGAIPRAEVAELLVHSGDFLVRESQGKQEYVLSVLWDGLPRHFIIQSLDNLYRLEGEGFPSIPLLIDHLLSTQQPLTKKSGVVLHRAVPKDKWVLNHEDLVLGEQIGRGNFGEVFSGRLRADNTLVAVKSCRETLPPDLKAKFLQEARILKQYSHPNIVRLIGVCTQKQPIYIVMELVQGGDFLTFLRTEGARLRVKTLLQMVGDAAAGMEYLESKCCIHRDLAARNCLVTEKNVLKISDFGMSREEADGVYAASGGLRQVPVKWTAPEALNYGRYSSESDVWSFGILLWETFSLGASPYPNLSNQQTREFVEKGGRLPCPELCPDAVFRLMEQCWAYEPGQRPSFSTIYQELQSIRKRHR
Procedure: as §3

FLT1 = FLT1 (Homo sapiens, UniProt P17948); experiment: Kinase inhibition assay (LANCE or HTRF); assay type: biochemical; conditions: ATP at Km
Sequence of FLT1 (P17948 27-1338): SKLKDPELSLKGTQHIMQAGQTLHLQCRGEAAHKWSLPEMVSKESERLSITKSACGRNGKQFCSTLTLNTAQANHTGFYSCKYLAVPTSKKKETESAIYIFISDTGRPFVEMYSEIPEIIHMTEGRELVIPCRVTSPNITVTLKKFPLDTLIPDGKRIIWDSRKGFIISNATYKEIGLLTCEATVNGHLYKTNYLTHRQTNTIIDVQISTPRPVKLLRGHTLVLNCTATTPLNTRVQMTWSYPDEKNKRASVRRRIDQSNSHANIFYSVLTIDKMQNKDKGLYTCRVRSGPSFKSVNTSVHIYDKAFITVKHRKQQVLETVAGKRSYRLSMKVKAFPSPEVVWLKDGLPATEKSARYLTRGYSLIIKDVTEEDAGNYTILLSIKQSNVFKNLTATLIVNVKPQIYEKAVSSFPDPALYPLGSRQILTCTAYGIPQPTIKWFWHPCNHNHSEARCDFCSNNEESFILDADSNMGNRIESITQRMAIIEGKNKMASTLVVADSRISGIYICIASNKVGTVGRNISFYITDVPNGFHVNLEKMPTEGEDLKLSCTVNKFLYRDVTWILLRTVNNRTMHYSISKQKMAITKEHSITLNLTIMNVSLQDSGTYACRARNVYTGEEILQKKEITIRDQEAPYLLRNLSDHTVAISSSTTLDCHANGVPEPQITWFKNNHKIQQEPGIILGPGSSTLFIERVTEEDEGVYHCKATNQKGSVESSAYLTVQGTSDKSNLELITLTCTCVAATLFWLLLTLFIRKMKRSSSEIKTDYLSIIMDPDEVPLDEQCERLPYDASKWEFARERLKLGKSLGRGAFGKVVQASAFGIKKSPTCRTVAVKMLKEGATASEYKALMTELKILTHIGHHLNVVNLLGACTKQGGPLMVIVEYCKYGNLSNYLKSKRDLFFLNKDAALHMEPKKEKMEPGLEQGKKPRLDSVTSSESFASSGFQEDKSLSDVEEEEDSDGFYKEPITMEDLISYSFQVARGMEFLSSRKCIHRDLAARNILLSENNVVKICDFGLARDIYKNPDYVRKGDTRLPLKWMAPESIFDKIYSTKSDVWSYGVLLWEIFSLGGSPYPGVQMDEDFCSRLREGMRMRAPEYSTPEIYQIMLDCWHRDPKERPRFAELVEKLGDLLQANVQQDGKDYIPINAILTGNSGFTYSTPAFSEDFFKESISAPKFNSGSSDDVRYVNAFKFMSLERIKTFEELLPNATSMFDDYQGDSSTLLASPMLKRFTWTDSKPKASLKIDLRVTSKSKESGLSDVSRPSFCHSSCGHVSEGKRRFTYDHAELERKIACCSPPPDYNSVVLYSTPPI
Procedure: as §3

AXL = AXL (Homo sapiens, UniProt P30530); experiment: cell-based
Sequence of AXL (P30530 26-894): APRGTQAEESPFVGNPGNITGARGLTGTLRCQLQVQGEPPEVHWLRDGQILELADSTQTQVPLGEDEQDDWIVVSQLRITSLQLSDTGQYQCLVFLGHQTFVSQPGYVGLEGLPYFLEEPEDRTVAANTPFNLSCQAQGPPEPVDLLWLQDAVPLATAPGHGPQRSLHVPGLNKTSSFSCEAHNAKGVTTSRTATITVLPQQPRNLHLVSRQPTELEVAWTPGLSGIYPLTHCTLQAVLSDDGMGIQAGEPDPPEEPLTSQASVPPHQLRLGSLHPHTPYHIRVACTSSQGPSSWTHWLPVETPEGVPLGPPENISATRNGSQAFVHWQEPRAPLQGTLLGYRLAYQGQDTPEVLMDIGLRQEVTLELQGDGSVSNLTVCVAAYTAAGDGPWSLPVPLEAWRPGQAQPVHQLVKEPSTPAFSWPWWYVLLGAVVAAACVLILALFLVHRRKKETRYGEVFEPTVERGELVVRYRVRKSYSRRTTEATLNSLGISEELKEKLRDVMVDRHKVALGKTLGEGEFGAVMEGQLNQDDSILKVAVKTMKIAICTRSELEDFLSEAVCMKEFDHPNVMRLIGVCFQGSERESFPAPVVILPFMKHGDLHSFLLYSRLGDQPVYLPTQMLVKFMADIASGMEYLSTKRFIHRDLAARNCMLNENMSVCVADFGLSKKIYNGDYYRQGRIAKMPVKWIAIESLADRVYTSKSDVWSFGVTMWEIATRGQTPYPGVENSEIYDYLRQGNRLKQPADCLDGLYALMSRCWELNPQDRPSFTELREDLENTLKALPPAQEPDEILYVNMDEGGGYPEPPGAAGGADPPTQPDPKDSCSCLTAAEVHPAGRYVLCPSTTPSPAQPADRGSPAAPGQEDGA
Procedure: Phosphorylation of the receptors MET, AXL, VEGFR2, and FLT3 was assessed in the transgenic human MKN45 gastric tumor cell line overexpressing MET, mouse embryonic fibroblasts (MEFs) expressing full-length human AXL (AXL-MEFs), human umbilical vein endothelial cells (HUVECs) […], and MEFs expressing full-length human FLT3 (FLT3-wt-MEFs), respectively. […] Then, HUVECs and FLT3-wt-MEFs were stimulated with the ligands VEGF-A (100 ng/ml, for 3 min) and FLT3-ligand (50 ng/ml, for 5 min). MKN45 (overexpressing MET) and AXL-MEFs cells had no stimulation. Cells treated with staurosporine (AXL, FLT3-wt, c-Kit, FLT3, TIE2, VEGF-R2; [1,0E-05 M]) or BMS777607 (MET; [1,0E-06 M]) or sunitinib (VEGF-R3; [1,0E-06 M]) or crizotinib (RON; [1,0E-05 M] were defined as low control (n = 8). The median value of those wells represented the background and was set to 0%. Cells treated with solvent alone were defined as high control (n = 8). The median value of those wells was set to 100%. Test sample-treated cells as well as high and low control were stimulated in identical manner. Quantification of receptor tyrosine kinase autophosphorylation was assessed in 96-well plates via sandwich ELISA using a receptor specific capture antibody and an anti-phosphotyrosine detection antibody. […]

SNU638 = experiment: Cell proliferation assay (CellTiter-Glo, 72 hours); assay type: cell-based; conditions: Homo sapiens, SNU-638, read-out: IC50 anti-proliferative
Procedure: (§4) Human gastric tumor cell lines with high MET expression levels, namely, the GTL-16, MKN45, SNU638, Hs746T, SNU-620, and SNU-5 cell lines, were used in the assay. […] Cell viability was measured after 72 hours using a CellTiter-Glo Luminescent Cell Viability Assay Kit (Promega, WI, USA) according to the manufacturer’s instructions.

GTL16 = experiment: Cell proliferation assay (CellTiter-Glo, 72 hours); assay type: cell-based; conditions: Homo sapiens, GTL 16, read-out: IC50 anti-proliferative
Procedure: as §4

NUGC-4 = experiment: Cell proliferation assay (CellTiter-Glo, 72 hours); assay type: cell-based; conditions: Homo sapiens, read-out: IC50 anti-proliferative
Procedure: These cell lines were obtained from American Type Culture Collection (ATCC), Japanese Collection of Research Bioresources (JCRB), Shanghai Institutes of Biological Sciences, CAS (SIBS), Korean Cell Line Bank (KCLB) or National Institutes of Health (NIH). […] Cell viability was measured after 72 hours using a CellTiter-Glo Luminescent Cell Viability Assay Kit (Promega, WI, USA) according to the manufacturer’s instructions.

AKT phosphorylation = experiment: Western blot of signaling molecules in SNU-5 cells; assay type: cell-based, human
Excerpt: (§1) The SNU-5 cell line was selected for western blotting analysis of signaling molecules. […] Immunoreactive proteins (p-AXL, t-ERK and p-ERK) were visualized using the ECL system (Pierce Chemical, TX, USA). Other proteins were detected by Odyssey (LI-COR, NE, USA) at a wavelength of 700 nm or 800 nm. […] Tumor lysates were subjected to western blotting. The following antibodies were purchased from Cell Signaling Technology (Cell Signaling Technology Cat#3148, RRID : AB_1031042): anti-MET (Cell Signaling Technology Cat# 3148, RRID : AB_1031042), anti-p-MET Y1234/1235 (Antibodies-Online Cat# ABIN461461, RRID : AB_10786128), anti-AXL (Cell Signaling Technology Cat# 4566, RRID : AB_2062563), anti-p-AXL Y702 (5724S), anti-ERK (9107S), anti-p-ERK Thr202/Tyr204 (4370S), anti-p-AKT Ser473 (4060S), and anti-AKT (Cell Signaling Technology Cat# 2920, RRID : AB_1147620).

AXL phosphorylation = experiment: Western blot of signaling molecules in SNU-5 cells; assay type: cell-based, human
Excerpt: as §1

ERK phosphorylation = experiment: Western blot of signaling molecules in SNU-5 cells; assay type: cell-based, human
Excerpt: as §1

MET phosphorylation = experiment: Western blot of signaling molecules in SNU-5 cells; assay type: cell-based, human
Excerpt: as §1

GA0046 PDX xenografts = experiment: In vivo efficacy study, PDX model; design: species or system immunodeficient mice
Procedure: (§2) Human tumor xenografts were established in female BALB/cA nude mice (5-6 weeks old) by administering the SNU-5 and MKN-45 cells, which have high MET expression levels. For efficacy studies in patient-derived tumor xenograft (PDX) mouse models, MET-overexpressing GA0046 and GA3121 tumors (obtained from Crownbio, CA, USA) were established by directly implanting surgical tissues into immunodeficient mice. […] The subcutaneous tumor size and body weight were measured twice weekly. The tumor volumes were determined by measuring two perpendicular diameters with calipers and calculated as (length × width^2)/2.

GA3121 PDX xenografts = experiment: In vivo efficacy study, PDX model; design: species or system immunodeficient mice; conditions: 20 mg/kg once per day oral gavage
Procedure: as §2

Sequence of FLT4 (P35916 25-1363): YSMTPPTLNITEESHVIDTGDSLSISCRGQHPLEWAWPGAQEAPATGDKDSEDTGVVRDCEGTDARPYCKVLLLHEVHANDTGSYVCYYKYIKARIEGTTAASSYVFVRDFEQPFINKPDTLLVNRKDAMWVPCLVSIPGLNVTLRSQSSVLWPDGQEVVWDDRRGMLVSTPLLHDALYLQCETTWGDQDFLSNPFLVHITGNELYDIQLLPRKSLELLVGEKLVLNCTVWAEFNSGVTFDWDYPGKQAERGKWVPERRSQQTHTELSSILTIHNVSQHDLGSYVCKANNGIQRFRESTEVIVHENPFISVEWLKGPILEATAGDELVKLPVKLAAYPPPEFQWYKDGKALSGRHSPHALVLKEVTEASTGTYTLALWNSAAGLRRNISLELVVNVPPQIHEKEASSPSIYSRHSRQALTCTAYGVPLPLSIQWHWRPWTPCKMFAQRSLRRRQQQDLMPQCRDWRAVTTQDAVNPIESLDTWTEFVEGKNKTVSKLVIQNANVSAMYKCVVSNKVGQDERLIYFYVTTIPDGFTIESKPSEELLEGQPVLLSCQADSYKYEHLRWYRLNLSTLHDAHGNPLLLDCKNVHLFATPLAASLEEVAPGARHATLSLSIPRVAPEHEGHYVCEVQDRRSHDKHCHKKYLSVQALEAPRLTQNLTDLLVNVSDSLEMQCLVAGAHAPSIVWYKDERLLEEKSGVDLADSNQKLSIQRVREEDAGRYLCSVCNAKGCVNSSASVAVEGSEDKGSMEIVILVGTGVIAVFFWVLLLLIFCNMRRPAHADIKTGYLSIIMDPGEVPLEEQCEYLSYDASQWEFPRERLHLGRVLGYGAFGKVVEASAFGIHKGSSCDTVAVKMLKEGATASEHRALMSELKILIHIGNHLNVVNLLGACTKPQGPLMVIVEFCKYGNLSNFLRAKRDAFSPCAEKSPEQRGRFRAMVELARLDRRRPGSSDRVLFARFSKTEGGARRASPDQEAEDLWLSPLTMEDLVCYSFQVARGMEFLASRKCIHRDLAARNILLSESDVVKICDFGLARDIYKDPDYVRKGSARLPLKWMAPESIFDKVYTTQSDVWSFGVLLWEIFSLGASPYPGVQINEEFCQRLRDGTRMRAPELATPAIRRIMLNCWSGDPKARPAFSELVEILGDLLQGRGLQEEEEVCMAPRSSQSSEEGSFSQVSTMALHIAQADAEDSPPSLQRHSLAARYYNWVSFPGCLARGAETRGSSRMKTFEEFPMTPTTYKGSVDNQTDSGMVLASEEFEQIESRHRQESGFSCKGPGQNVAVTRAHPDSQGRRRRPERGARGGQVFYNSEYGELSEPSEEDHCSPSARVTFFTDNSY
Sequence of ITK (Q08881 whole entry): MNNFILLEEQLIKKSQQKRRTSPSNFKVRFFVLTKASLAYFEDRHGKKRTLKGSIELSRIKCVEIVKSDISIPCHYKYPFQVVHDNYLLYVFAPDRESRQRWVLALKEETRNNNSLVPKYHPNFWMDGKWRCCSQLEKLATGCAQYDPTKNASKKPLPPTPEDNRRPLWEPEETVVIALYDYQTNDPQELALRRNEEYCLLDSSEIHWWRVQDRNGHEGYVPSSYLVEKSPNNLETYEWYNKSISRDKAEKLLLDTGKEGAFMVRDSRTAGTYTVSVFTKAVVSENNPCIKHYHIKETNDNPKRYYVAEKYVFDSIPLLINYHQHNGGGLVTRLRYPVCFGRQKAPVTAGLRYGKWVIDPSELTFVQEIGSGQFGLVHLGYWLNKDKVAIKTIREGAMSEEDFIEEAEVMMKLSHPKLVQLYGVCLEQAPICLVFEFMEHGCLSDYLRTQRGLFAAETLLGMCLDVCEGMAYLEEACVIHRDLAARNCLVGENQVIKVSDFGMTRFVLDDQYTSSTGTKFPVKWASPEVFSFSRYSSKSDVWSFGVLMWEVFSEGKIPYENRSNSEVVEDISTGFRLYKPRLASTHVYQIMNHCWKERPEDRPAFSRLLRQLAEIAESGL

`Cc1c(C(=O)Nc2ccc(Oc3ccnc4cc(OCC(C)(C)O)ccc34)c(F)c2)c(=O)n(-c2ccccc2)n1C` [CT053] showed an IC50 (FLT4) of 46 nM, an IC50 (ITK) of 240 nM and an IC50 (Fes) of 48 nM. The IC50 (FLT1) was 6100 nM, the IC50 (AXL) was 0.44 nM and the IC50 (SNU638) was 90 nM. The IC50 (GTL16) was 170 nM, the IC50 (NUGC-4) was over 10000 nM and the “suppression of induced AKT activity” value (AKT phosphorylation) was “a much higher concentration of CT053 was required”. The “concentration that completely suppressed AXL phosphorylation” value (AXL phosphorylation) was 100 nM, the “concentration that completely suppressed phosphorylation of ERK” value (ERK phosphorylation) was 1000 nM and the “concentration that completely suppressed phosphorylation of MET” value (MET phosphorylation) was 1000 nM. It also gave a TGI (GA0046 PDX xenografts; 3 mg/kg once per day oral gavage) of 18%, a TGI (GA0046 PDX xenografts; 10 mg/kg once per day oral gavage) of 57% and a TGI (GA0046 PDX xenografts; 20 mg/kg once per day oral gavage) of 75%. It also gave a TGI (GA3121 PDX xenografts) of 172%.
